Drawing on US5061794A, “Cephalosporin derivatives, and antibacterial agents” (priority 1986, dated 1991), this text covers MIC for 2 compounds.

For one assay, the system named is E. coli CSH2 (RK1). The experiment in a line: microbe, parasite or virus in culture. The class given is cell-based. The settings on record: Escherichia coli, 16 h, read-out: Minimum Inhibitory Concentration (MIC), *E. coli CSH2 (RK1), lactamase-producing strain; 10^6 CFU/ml. In a few lines:
(§1)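 Inoculum 10^6 CFU/ml; medium Mueller Hinton agar with graded antibiotic; 37° C./16 h; endpoint MIC (μg/ml).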

The test system of the next assay is E. coli CSH(RE45). The experiment in a line: microbe, parasite or virus in culture. In kind it is cell-based. Particulars: Escherichia coli, 16 h, read-out: Minimum Inhibitory Concentration (MIC), *E. coli CSH(RE45), lactamase-producing strain; 10^6 CFU/ml. In a few lines: as §1
Another assay has as its system Ps. aeruginosa AK 109. The experiment in a line: in vitro antibacterial activity, agar plate dilution method (MIC). The class given is cell-based, Pseudomonas aeruginosa. The settings on record: Pseudomonas aeruginosa, AK109, 16 h, 10^6 CFU/ml. In a few lines: as §1
Another assay concerns Ps. aeruginosa AKR17. The assay is described as above. The class given is cell-based, Pseudomonas aeruginosa. The settings on record: Pseudomonas aeruginosa, read-out: Minimum Inhibitory Concentration (MIC). The procedure, abridged:
as §1

The test system of a further assay is Ps. aeruginosa IF03445. Described as above. The class given is cell-based, Pseudomonas aeruginosa. The settings on record: Pseudomonas aeruginosa, IF03445, 16 h, read-out: Minimum Inhibitory Concentration (MIC), Ps. aeruginosa IF03445; 10^6 CFU/ml. In a few lines: as §1
A further assay relates to A. calcoaceticus No. 4. The description is as above. In kind it is cell-based, Acinetobacter calcoaceticus. The settings on record: Acinetobacter calcoaceticus, NO.4, 16 h, 10^6 CFU/ml. The procedure, abridged: as §1
The next assay has as its system E. coli GN5482. The description is as above. The class given is cell-based. The settings on record: Escherichia coli, GN5482, 16 h, read-out: Minimum Inhibitory Concentration (MIC), *E. coli GN5482, lactamase-producing strain; 10^6 CFU/ml. In a few lines:
as §1

The next assay concerns K. pneumoniae PCI-602. The assay is described as above. In kind it is cell-based. Particulars: Klebsiella pneumoniae, PCI602, 16 h, read-out: Minimum Inhibitory Concentration (MIC), K. pneumoniae PCI-602; 10^6 CFU/ml. In a few lines: as §1
A further assay deals with P. vulgaris No. 33. Described as above. In kind it is cell-based. The settings on record: Proteus vulgaris, NO.33, 16 h, read-out: Minimum Inhibitory Concentration (MIC), *P. vulgaris No. 33, lactamase-producing strain; 10^6 CFU/ml. In a few lines:
as §1

Another assay deals with S. marcescens IAM 1184. The assay is described as above. The class given is cell-based. The settings on record: Serratia marcescens, IAM1184, 16 h, S. marcescens IAM 1184; 10^6 CFU/ml; read-out: Minimum Inhibitory Concentration (MIC). The procedure, abridged: as §1
The test system of the next assay is E. cloacae Nek 39. Described as above. The settings on record: Enterobacter cloacae, NEK39, 16 h, read-out: Minimum Inhibitory Concentration (MIC), *E. cloacae Nek 39, lactamase-producing strain; 10^6 CFU/ml. In kind it is cell-based. In a few lines:
as §1

In another assay the test system is E. cloacae 963. The assay is described as above. The class given is cell-based. Particulars: Enterobacter cloacae, 963, 16 h, read-out: Minimum Inhibitory Concentration (MIC), E. cloacae 963; 10^6 CFU/ml. In a few lines: as §1
A further assay concerns E. coli NIHJ JC2. Described as above. The class given is cell-based. The settings on record: Escherichia coli, NIHJJC2, 16 h, read-out: Minimum Inhibitory Concentration (MIC), E. coli NIHJ JC2, 10^6 CFU/ml, 37° C. The procedure, abridged: as §1
Another assay deals with M. morganii GN5407. Described as above. The class given is cell-based. The settings on record: Morganella morganii, GN5407, 16 h, read-out: Minimum Inhibitory Concentration (MIC), *M. morganii GN5407, lactamase-producing strain; 10^6 CFU/ml. The procedure, abridged:
as §1

Another assay has as its system K. pneumoniae No. 42. The assay is described as above. Particulars: Klebsiella pneumoniae, 10^6 CFU/ml. In kind it is cell-based. In a few lines:
as §1

The next assay has as its system S. marcescens No. 16-2. The description is as above. The class given is cell-based. The settings on record: Serratia marcescens, NO.162, 16 h, read-out: Minimum Inhibitory Concentration (MIC), *S. marcescens No. 16-2, lactamase-producing strain; 10^6 CFU/ml. The procedure, abridged:
as §1

The next assay deals with P. vulgaris HX-19. Described as above. In kind it is cell-based. The settings on record: Proteus vulgaris, HX19, 16 h, P. vulgaris HX-19; 10^6 CFU/ml; read-out: Minimum Inhibitory Concentration (MIC). The procedure, abridged: as §1
The next assay concerns K. oxytoca GN10650. The assay is described as above. The class given is cell-based. Particulars: Klebsiella oxytoca, GN10650, 16 h, read-out: Minimum Inhibitory Concentration (MIC), *K. oxytoca GN10650, lactamase-producing strain; 10^6 CFU/ml. In a few lines: as §1
For another assay, the system named is S. aureus 209P NIHJ-JC1. Described as above. In kind it is cell-based. Particulars: Staphylococcus aureus, 16 h, read-out: Minimum Inhibitory Concentration (MIC), S. aureus 209P NIHJ-JC1; 10^6 CFU/ml, 37° C., 16 hours. The procedure, abridged:
as §1

A further assay relates to Ps. cepacia 23. Described as above. The class given is cell-based, Pseudomonas cepacia. The settings on record: Burkholderia cepacia, 16 h; Ps. cepacia 23; 10^6 CFU/ml; read-out: Minimum Inhibitory Concentration (MIC). The procedure, abridged: as §1

Molecules are shown by their SMILES. In brackets after ≈: the same amount, converted by molar mass. Like-named read-outs stand apart in the source and are kept apart here.

`Nc1nc(/C(=N/OCc2ccccc2CC(=O)O)C(=O)N[C@@H]2C(=O)N3C(C(=O)O)=C(CSc4nnc(-c5ccc(O)c(O)c5)o4)CS[C@H]23)cs1` [Ex. 23]: the MIC is below 0.006 µg/mL in the assay on E. coli CSH2 (RK1); below 0.006 µg/mL in the assay on E. coli CSH(RE45); 0.1 µg/mL (≈ 0.135 µM) with Ps. aeruginosa AK 109 (Ps. aeruginosa AK 109, read-out: Minimum Inhibitory Concentration (MIC)); 12.5 µg/mL (≈ 16.9 µM) with Ps. aeruginosa AKR17 (AKR17, 16 h); 0.39 µg/mL (≈ 0.527 µM) in the assay on Ps. aeruginosa IF03445; 0.1 µg/mL (≈ 0.135 µM) in the assay with A. calcoaceticus No. 4 (read-out: Minimum Inhibitory Concentration (MIC), A. calcoaceticus No. 4). The MIC is 0.78 µg/mL (≈ 1.05 µM) in the assay with E. coli GN5482; below 0.006 µg/mL with K. pneumoniae PCI-602; 0.0125 µg/mL (≈ 0.0169 µM) in the assay on P. vulgaris No. 33; 0.025 µg/mL (≈ 0.0338 µM) in the assay on S. marcescens IAM 1184; 0.1 µg/mL (≈ 0.135 µM) in the assay on E. cloacae Nek 39; 0.025 µg/mL (≈ 0.0338 µM) with E. cloacae 963. The MIC was 0.2 µg/mL (≈ 0.27 µM) in the assay with E. coli NIHJ JC2; 0.025 µg/mL (≈ 0.0338 µM) in the assay with M. morganii GN5407; below 0.006 µg/mL in the assay on K. pneumoniae No. 42 (16 h, *K. pneumoniae No. 42, lactamase-producing strain, read-out: Minimum Inhibitory Concentration (MIC)); 1.56 µg/mL (≈ 2.11 µM) in the assay on S. marcescens No. 16-2; below 0.006 µg/mL in the assay with P. vulgaris HX-19; 0.1 µg/mL (≈ 0.135 µM) with K. oxytoca GN10650. The values for the MIC with S. aureus 209P NIHJ-JC1 and with Ps. cepacia 23 were 6.25 µg/mL (≈ 8.45 µM) and below 0.006 µg/mL, respectively.

For the compound `CO/N=C(\C(=O)N[C@@H]1C(=O)N2C(C(=O)O)=C(CSc3nnc(-c4ccc(O)c(O)c4)s3)CS[C@H]12)c1csc(N)n1` [Ex. 25, sodium 7β-[2-(2-aminothiazol-4-yl)-2-methoxviminoacetamido]-3-[5-(3,4-dihydroxyphenyl)-1,3,4-thiadiazol-2-yl]thiomethyl-3-cephem-4-carboxylate], the MIC was below 0.006 µg/mL in the assay on E. coli CSH2 (RK1); 0.025 µg/mL with E. coli CSH(RE45); 0.78 µg/mL with Ps. aeruginosa AK 109 (read-out: Minimum Inhibitory Concentration (MIC), Ps. aeruginosa AK 109); 100 µg/mL in the assay with Ps. aeruginosa AKR17 (16 h, Ps. aeruginosa AKR17, 10^6 CFU/ml); 0.78 µg/mL with Ps. aeruginosa IF03445; 0.2 µg/mL in the assay on A. calcoaceticus No. 4 (A. calcoaceticus No. 4, read-out: Minimum Inhibitory Concentration (MIC)). Moreover, the MIC was 0.78 µg/mL in the assay with E. coli GN5482; below 0.006 µg/mL in the assay with K. pneumoniae PCI-602; 0.025 µg/mL in the assay on P. vulgaris No. 33; 0.0125 µg/mL in the assay on S. marcescens IAM 1184; 0.39 µg/mL in the assay on E. cloacae Nek 39; 0.025 µg/mL with E. cloacae 963. Besides, the MIC in the assay with E. coli NIHJ JC2 was 0.2 µg/mL; with M. morganii GN5407, 0.025 µg/mL; in the assay with K. pneumoniae No. 42 (NO.42, 16 h, read-out: Minimum Inhibitory Concentration (MIC), *K. pneumoniae No. 42, lactamase-producing strain), 0.0125 µg/mL; in the assay with S. marcescens No. 16-2 it was 1.56 µg/mL; in the assay on P. vulgaris HX-19 it was below 0.006 µg/mL; in the assay on K. oxytoca GN10650 it was 0.78 µg/mL. In addition, the MIC in the assay on S. aureus 209P NIHJ-JC1 was 0.78 µg/mL; in the assay on Ps. cepacia 23 it was below 0.006 µg/mL.
